These results are taken from patent publication US20170088520A1, “DEUBIQUITINASE INHIBITORS” (PharmAkea, Inc., priority 2014, published 2017).

Bounds are passed on as bounds.

Holding throughout (format): cell-based
Assay [1] deals with Mcl-1 expression in cells (NCI-H929, Z138, MM.1S, A-375). Kind of assay: Analysis of Mcl-1 expression by Western blotting. The note with it: compound tested at 5 μM; Western blot. A digest of the protocol:
(§1)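 NCI-H929, Z138, MM.1S and A-375 cells were treated with compounds at 5 μM, and lysates were Western blotted with anti-Mcl-1 and anti-PARP antibodies, quantified by infrared fluorescence. Activity is a significant drop in Mcl-1 and the appearance of cleaved PARP, each relative to vehicle-treated cells.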

The test system of assay [2] is PARP cleavage in cells (NCI-H929, Z138, MM.1S, A-375). Kind of assay: Analysis of PARP cleavage by Western blotting. The note with it: compound tested at 5 μM; Western blot. In short, it runs like this: as §1
In assay [3] the target is T1, DUB activity in cells (NCI-H929, Z138, MM.1S, A375) (Homo sapiens, UniProt Q93008).
T1 construct: endogenous in cells; host or cells: NCI-H929, Z138, MM.1S, A375
Kind of assay: HA-Ubiquitin-Vinylsulfone (HA-Ub-VS) cell labeling assay. The note with it: compound tested at 5 μM; HA-Ub-VS labeling of USP9x in cells. A digest of the protocol:
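NCI-H929, Z138, MM.1S or A375 cells (1–2×10^6) treated 2–6 h at 37 °C with compound in 0.5% DMSO, here 5 μM. Lysates labeled with HA-Ub-VS for 15–60 min at 37 °C. Labeled DUBs resolved by SDS-PAGE and quantified by anti-HA and anti-β-actin immunoblot with infrared detection.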

T1 sequence (Q93008 whole entry): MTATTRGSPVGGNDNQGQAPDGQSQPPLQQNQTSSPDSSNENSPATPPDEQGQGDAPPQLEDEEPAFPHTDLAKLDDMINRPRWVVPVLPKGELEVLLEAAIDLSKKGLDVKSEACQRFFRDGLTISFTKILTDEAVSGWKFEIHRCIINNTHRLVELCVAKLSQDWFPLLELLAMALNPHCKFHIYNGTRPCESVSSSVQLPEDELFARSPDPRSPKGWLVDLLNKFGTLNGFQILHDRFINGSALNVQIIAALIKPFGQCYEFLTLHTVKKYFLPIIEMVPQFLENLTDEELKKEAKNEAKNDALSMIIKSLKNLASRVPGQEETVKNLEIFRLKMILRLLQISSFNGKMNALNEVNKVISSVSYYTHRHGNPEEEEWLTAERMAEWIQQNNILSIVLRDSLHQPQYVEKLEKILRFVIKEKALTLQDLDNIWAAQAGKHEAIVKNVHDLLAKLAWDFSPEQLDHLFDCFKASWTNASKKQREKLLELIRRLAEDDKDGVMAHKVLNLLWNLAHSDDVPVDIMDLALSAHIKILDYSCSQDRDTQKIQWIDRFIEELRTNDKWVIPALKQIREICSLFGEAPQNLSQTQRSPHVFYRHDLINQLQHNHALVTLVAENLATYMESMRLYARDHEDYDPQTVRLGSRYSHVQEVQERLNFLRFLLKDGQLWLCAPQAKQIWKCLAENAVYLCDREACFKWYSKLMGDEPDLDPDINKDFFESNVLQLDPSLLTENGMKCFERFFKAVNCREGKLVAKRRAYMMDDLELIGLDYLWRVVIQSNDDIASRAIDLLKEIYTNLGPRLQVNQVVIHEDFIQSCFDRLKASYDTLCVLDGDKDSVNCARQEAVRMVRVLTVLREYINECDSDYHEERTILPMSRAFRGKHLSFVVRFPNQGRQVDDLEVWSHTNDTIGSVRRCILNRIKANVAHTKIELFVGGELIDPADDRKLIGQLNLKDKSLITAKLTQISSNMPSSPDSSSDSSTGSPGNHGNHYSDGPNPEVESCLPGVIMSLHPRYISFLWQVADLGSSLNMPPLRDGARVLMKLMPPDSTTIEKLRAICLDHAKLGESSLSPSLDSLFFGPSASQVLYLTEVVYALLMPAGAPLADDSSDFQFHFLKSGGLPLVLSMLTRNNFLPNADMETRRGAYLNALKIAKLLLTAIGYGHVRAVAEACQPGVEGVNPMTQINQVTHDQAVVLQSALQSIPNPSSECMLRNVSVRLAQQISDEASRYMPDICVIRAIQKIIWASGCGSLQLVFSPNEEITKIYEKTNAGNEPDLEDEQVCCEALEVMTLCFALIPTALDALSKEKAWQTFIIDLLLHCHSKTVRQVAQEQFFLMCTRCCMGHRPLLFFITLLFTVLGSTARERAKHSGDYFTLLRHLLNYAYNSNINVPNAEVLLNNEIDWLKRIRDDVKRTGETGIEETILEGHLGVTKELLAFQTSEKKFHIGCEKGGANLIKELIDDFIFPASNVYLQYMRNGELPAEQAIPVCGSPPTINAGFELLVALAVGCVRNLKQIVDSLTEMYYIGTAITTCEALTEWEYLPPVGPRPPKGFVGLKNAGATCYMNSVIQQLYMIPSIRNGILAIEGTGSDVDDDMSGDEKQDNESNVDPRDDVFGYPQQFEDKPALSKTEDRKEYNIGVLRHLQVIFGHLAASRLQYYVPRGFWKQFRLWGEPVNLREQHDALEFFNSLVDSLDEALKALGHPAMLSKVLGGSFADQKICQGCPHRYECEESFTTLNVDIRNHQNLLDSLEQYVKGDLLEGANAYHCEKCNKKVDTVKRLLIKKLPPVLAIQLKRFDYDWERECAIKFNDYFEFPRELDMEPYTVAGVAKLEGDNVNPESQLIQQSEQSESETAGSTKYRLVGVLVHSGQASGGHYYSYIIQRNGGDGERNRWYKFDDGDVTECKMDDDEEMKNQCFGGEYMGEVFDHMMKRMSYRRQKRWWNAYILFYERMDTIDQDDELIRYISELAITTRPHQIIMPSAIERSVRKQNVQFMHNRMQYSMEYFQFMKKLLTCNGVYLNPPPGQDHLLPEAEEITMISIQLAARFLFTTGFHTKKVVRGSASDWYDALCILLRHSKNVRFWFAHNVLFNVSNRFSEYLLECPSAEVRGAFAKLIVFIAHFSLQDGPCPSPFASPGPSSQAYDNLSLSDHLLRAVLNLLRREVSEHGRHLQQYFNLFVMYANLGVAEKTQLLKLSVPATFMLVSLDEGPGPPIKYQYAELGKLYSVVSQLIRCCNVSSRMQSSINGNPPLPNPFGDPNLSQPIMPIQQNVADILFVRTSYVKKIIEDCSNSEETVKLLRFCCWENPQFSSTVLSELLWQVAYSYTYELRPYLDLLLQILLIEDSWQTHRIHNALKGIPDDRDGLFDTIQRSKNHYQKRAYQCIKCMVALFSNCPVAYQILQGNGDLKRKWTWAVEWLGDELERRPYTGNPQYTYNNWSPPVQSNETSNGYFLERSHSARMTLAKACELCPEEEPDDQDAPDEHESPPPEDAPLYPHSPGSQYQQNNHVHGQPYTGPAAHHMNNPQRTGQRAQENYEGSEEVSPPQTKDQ

In general, inhibition refers to the relative decrease from the control value, in per cent. Low readings indicate a weak effect, high ones a strong effect. Turning to `N#C/C(=C\c1cccc(Br)n1)C(=O)NC1(c2cccc(Br)c2)CCCC1` [Compound 58, (E)-N-(1-(3-bromophenyl)cyclopentyl)-3-(6-bromopyridin-2-yl)-2-cyanoacrylamide], the inhibition at 5 µM in assay [1] and in assay [3] was no less than 75% throughout. Further, the “PARP cleavage % Inhibition” value in assay [2] is “A (A is ≧75% inhibition)”.

Take `N#C/C(=C\c1ncc(Br)cc1Br)C(=O)NC1(c2ccc(-c3cnc4[nH]ccc4c3)cc2)CCCC1` [Compound 59, (E)-N-(1-(4-(1H-pyrrolo[2,3-b]pyridin-5-yl)phenyl)cyclopentyl)-2-cyano-3-(3,5-dibromopyridin-2-yl)acrylamide]: the inhibition at 5 µM in assay [1] and in assay [3] was no less than 75% each time. Further, the “PARP cleavage % Inhibition” value in assay [2] is listed as “A (A is ≧75% inhibition)”.

As for `CCOC(=O)c1cccc(-c2cccc(/C=C(\C#N)C(=O)NC3(c4ccccc4)CCCC3)n2)c1F` [Compound 60], the values for the inhibition at 5 µM in assay [1] and in assay [3] were no less than 75% and 50 to 75%, respectively. Besides, the “PARP cleavage % Inhibition” value in assay [2] is listed as “A (A is ≧75% inhibition)”.

For the compound `N#C/C(=C\c1cccc(-c2cnc3[nH]ccc3c2)n1)C(=O)NC1(c2ccccc2)CCCC1` [Compound 61, (E)-3-(6-(1H-pyrrolo[2,3-b]pyridin-5-yl)pyridin-2-yl)-2-cyano-N-(1-phenylcyclopentyl)acrylamide], the inhibition at 5 µM in assay [1] and in assay [3] was less than 25% each time. The “PARP cleavage % Inhibition” value in assay [2] is given as “B (B is 50% to 75% inhibition)”.

Take `Cn1cc(-c2cccc(/C=C(\C#N)C(=O)NC3(c4ccccc4)CCCC3)n2)cn1` [Compound 62, (E)-2-cyano-3-(6-(1-methyl-1H-pyrazol-4-yl)pyridin-2-yl)-N-(1-phenylcyclopentyl)acrylamide]: the inhibition at 5 µM is no less than 75% in assay [1] and 50 to 75% in assay [3]. Also, in assay [2], the “PARP cleavage % Inhibition” value is reported as “A (A is ≧75% inhibition)”.

`C=C(C)c1ccc(C2(NC(=O)/C(C#N)=C/c3ncc(Br)cc3Br)CCCC2)cc1` [Compound 63, (E)-2-cyano-3-(3,5-dibromopyridin-2-yl)-N-(1-(4-(prop-1-en-2-yl)phenyl)cyclopentyl)acrylamide]: the inhibition at 5 µM in assay [1] and in assay [3] was no less than 75% throughout. Further, in assay [2], the “PARP cleavage % Inhibition” value was “A (A is ≧75% inhibition)”.

For the compound `N#C/C(=C\c1cccc(-c2ccc(C(F)(F)F)nc2)n1)C(=O)NC1(c2ccccc2)CCCC1` [Compound 64, (E)-2-cyano-N-(1-phenylcyclopentyl)-3-(6′-(trifluoromethyl)-[2,3′-bipyridin]-6-yl)acrylamide], the values for the inhibition at 5 µM in assay [1] and in assay [3] were no less than 75% and 50 to 75%, respectively. Besides, the “PARP cleavage % Inhibition” value in assay [2] was “A (A is ≧75% inhibition)”.

In the case of `N#C/C(=C\c1cccc(-c2ccc(N3CCCCC3)nc2)n1)C(=O)NC1(c2ccccc2)CCCC1` [Compound 65, (E)-2-cyano-N-(1-phenylcyclopentyl)-3-(6′-(piperidin-1-yl)-[2,3′-bipyridin]-6-yl)acrylamide], the values for the inhibition at 5 µM in assay [1] and in assay [3] were less than 25% and 25 to 50%, respectively. Further, the “PARP cleavage % Inhibition” value in assay [2] is “B (B is 50% to 75% inhibition)”.

As to `CN(C)C(=O)c1ccc(C2(NC(=O)/C(C#N)=C/c3ncc(Br)cc3Br)CCCC2)cc1` [Compound 66, (E)-4-(1-(2-cyano-3-(3,5-dibromopyridin-2-yl)acrylamido)cyclopentyl)-N,N-dimethylbenzamide], the inhibition at 5 µM in assay [1] was no less than 75%; in assay [3], 50 to 75%. Further, the “PARP cleavage % Inhibition” value in assay [2] was “A (A is ≧75% inhibition)”.

As to `N#C/C(=C\c1cccc(C2CC2)n1)C(=O)NC1(c2ccc(-c3cccnc3)cc2)CCCC1` [Compound 67, (E)-2-cyano-3-(6-cyclopropylpyridin-2-yl)-N-(1-(4-(pyridin-3-yl)phenyl)cyclopentyl)acrylamide], the inhibition at 5 µM is no less than 75% in assay [1] and 50 to 75% in assay [3]. In addition, in assay [2], the “PARP cleavage % Inhibition” value is “A (A is ≧75% inhibition)”.

On to `N#C/C(=C\c1ncc(Br)cc1Br)C(=O)NC1(c2ccc(-c3ccc(C(F)(F)F)nc3)cc2)CCCC1` [Compound 68, (E)-2-cyano-3-(3,5-dibromopyridin-2-yl)-N-(1-(4-(6-(trifluoromethyl)pyridin-3-yl)phenyl)cyclopentyl)acrylamide], for which the inhibition at 5 µM in assay [1] and in assay [3] was no less than 75% each time. The “PARP cleavage % Inhibition” value in assay [2] is given as “A (A is ≧75% inhibition)”.

Consider `N#C/C(=C\c1ncc(Br)cc1Br)C(=O)NC1(c2ccc(-c3ccc(N4CCCCC4)nc3)cc2)CCCC1` [Compound 69, (E)-2-cyano-3-(3,5-dibromopyridin-2-yl)-N-(1-(4-(6-(piperidin-1-yl)pyridin-3-yl)phenyl)cyclopentyl)acrylamide], for which the inhibition at 5 µM in assay [1] and in assay [3] was less than 25% in each case. Further, the “PARP cleavage % Inhibition” value in assay [2] is “D (D is <25% inhibition)”.

For the compound `N#C/C(=C\c1cccc(-c2ccc3[nH]ncc3c2)n1)C(=O)NC1(c2ccccc2)CCCC1` [Compound 70, (E)-3-(6-(1H-indazol-5-yl)pyridin-2-yl)-2-cyano-N-(1-phenylcyclopentyl) acrylamide], the inhibition at 5 µM is no less than 75% in assay [1] and 50 to 75% in assay [3]. Besides, the “PARP cleavage % Inhibition” value in assay [2] is “A (A is ≧75% inhibition)”.

Turning to `N#C/C(=C\c1cccc(-c2cccc(C(=O)O)c2)n1)C(=O)NC1(c2ccccc2)CCCC1` [Compound 71, (E)-3-(6-(2-cyano-3-oxo-3-((1-phenylcyclopentyl)amino)prop-1-en-1-yl)pyridin-2-yl)benzoic acid], the inhibition at 5 µM in assay [1] and in assay [3] was less than 25% each time. The “PARP cleavage % Inhibition” value in assay [2] is “D (D is <25% inhibition)”.

On to `COc1ccc(COc2ccc(C3(NC(=O)/C(C#N)=C/c4cccc(Br)n4)CCCC3)cc2)cc1` [Compound 72, (E)-3-(6-bromopyridin-2-yl)-2-cyano-N-(1-(4-((4-methoxybenzyl)oxy)phenyl)cyclopentyl)acrylamide], for which the inhibition at 5 µM in assay [1] is no less than 75%; in assay [3] it was 50 to 75%. The “PARP cleavage % Inhibition” value in assay [2] is “A (A is ≧75% inhibition)”.

Turning to `N#C/C(=C\c1cccc(Br)n1)C(=O)NC1(c2ccc(-c3cccnc3)cc2)CCCC1` [Compound 73, (E)-3-(6-bromopyridin-2-yl)-2-cyano-N-(1-(4-(pyridin-3-yl)phenyl)cyclopentyl)acrylamide], the inhibition at 5 µM in assay [1] and in assay [3] was no less than 75% throughout. Further, the “PARP cleavage % Inhibition” value in assay [2] is recorded as “A (A is ≧75% inhibition)”.

For `N#C/C(=C\c1cccc(Br)n1)C(=O)NC1(c2ccc(C#CC3(O)COC3)cc2)CCCC1` [Compound 75, (E)-3-(6-bromopyridin-2-yl)-2-cyano-N-(1-(4-((3-hydroxyoxetan-3-yl)ethynyl)phenyl)cyclopentyl)acrylamide], the inhibition at 5 µM was no less than 75% in assay [1] and 50 to 75% in assay [3]. Further, the “PARP cleavage % Inhibition” value in assay [2] was “A (A is ≧75% inhibition)”.

Regarding `N#C/C(=C\c1cccc(Br)n1)C(=O)NC1(c2ccc(C#CC3(O)CCCC3)cc2)CCCC1` [Compound 76, (E)-3-(6-bromopyridin-2-yl)-2-cyano-N-(1-(4-((1-hydroxycyclopentyl)ethynyl)phenyl)cyclopentyl)acrylamide], the inhibition at 5 µM in assay [1] and in assay [3] was no less than 75% in each case. Moreover, the “PARP cleavage % Inhibition” value in assay [2] is given as “A (A is ≧75% inhibition)”.

With `Cn1cc(-c2ccc(C3(NC(=O)/C(C#N)=C/c4ncc(Br)cc4Br)CCCC3)cc2)cn1` [Compound 77, (E)-2-cyano-3-(3,5-dibromopyridin-2-yl)-N-(1-(4-(1-methyl-1H-pyrazol-4-yl)phenyl)cyclopentyl)acrylamide], the inhibition at 5 µM in assay [1] and in assay [3] was 50 to 75% in each case. The “PARP cleavage % Inhibition” value in assay [2] is on record as “B (B is 50% to 75% inhibition)”.

Turning to `N#C/C(=C\c1cccc(Br)n1)C(=O)NC1(c2ccc(C#CCNCCO)cc2)CCCC1` [Compound 78, (E)-3-(6-bromopyridin-2-yl)-2-cyano-N-(1-(4-(3-((2-hydroxyethyl)amino)prop-1-yn-1-yl)phenyl)cyclopentyl)acrylamide], the inhibition at 5 µM in assay [1] was less than 25%; in assay [3], 50 to 75%. Moreover, the “PARP cleavage % Inhibition” value in assay [2] is recorded as “B (B is 50% to 75% inhibition)”.

In the case of `N#C/C(=C\c1cccc(Br)n1)C(=O)NC1(c2ccc(O)cc2)CCCC1` [Compound 79, (E)-3-(6-bromopyridin-2-yl)-2-cyano-N-(1-(4-hydroxyphenyl)cyclopentyl)acrylamide], the inhibition at 5 µM in assay [1] and in assay [3] was no less than 75% in each case. Moreover, in assay [2], the “PARP cleavage % Inhibition” value was “A (A is ≧75% inhibition)”.

`N#C/C(=C\c1cccc(Br)n1)C(=O)NC1(c2ccccc2)CCOC1` (stereo not drawn) [Compound 80, (E)-3-(6-bromopyridin-2-yl)-2-cyano-N-(3-phenyltetrahydrofuran-3-yl)acrylamide]: the inhibition at 5 µM in assay [1] and in assay [3] was less than 25% each time. Also, in assay [2], the “PARP cleavage % Inhibition” value was “D (D is <25% inhibition)”.

Take `N#C/C(=C\c1cccc(Br)n1)C(=O)NC1(c2cccc(CO)c2)CCCC1` [Compound 81, (E)-3-(6-bromopyridin-2-yl)-2-cyano-N-(1-(3-(hydroxymethyl)phenyl)cyclopentyl)acrylamide]: the inhibition at 5 µM in assay [1] fell in the range of 25 to 50%; in assay [3], 50 to 75%. Moreover, the “PARP cleavage % Inhibition” value in assay [2] was “A (A is ≧75% inhibition)”.
